# Source: patent US4665056A, “Dihydroorotic acid derivative and processes for preparing the same” (Tanabe Seiyaku Co., Ltd., priority 1984, dated 1987)
# What was measured:
# [1] = system: male STD/ddY mice; conditions: published data (Brain Research Reviews 4, 389 (1982)); cited from earlier work
# [2] = system: male STD/ddY mice; experiment: Antagonistic effect on reserpine-induced hypothermia, oral administration; format: in vivo; conditions: TRH tartrate taken as 1, parallel line assay method
# Method: (§1) The pharmacological activities of test compounds estimated by oral administration.
# (§2) A test compound dissolved in distilled water was orally administered to the mice, and the rectal temperature was measured 30, 60, 120, 180 and 300 minutes after the administration of the test compound. The increase in the body temperature of the medicated group of mice was compared with that of the control group of mice which received distilled water instead of the test compound solution.
# [3] = system: male STD/ddY mice; experiment: Increasing effect on spontaneous locomotor activity, oral administration; format: in vivo; conditions: activity measured for 3 hours
# Method: as §1
# (§3) Male STD/ddY mice were individually placed in Ambulometer (i.e., an apparatus for measuring spontaneous locomotor activity; manufactured by OHARA IKA Co.) for 30 minutes to acclimatize to the apparatus. Thereafter, a test compound dissolved in distilled water was orally administered to the mice and, immediately after administration of the test compound, the spontaneous locomotor activity was measured for 3 hours. Distilled water was administered to the control group of mice instead of the test compound solution.
# [4] = system: male STD/ddY mice; experiment: Antagonistic effect on pentobarbital anesthesia, oral administration; format: in vivo; conditions: oral administration 15 min before pentobarbital sodium 55 mg/kg i.p.
# Method: as §1
# A test compound dissolved in distilled water was orally administered to male STD/ddY mice. Fifteen minutes after the administration of the test compound, pentobarbital sodium was intraperitoneally administered to the mice at a dose of 55 mg/kg. The duration of anesthesia was measured as the time from the disappearance of righting reflex to the recovery thereof. Distilled water was administered to the control group of mice instead of the test compound solution.
# [5] = system: male STD/ddY mice; experiment: Antagonistic effect on reserpine-induced hypothermia, intraperitoneal administration; format: in vivo; conditions: TRH taken as 1, parallel line assay method
# Method: as §2
# (§4) The pharmacological activities of test compounds estimated by parenteral administration.
# (§5) The experiments were carried out in the same manner as described in Experiment 1 except that a test compound dissolved in a physiological saline solution was administered intraperitoneally to mice and, in estimating the increasing effect on spontaneous locomotor activity, said spontaneous locomotor activity was measured for 60 minutes immediately after administration of the test compound.
# [6] = system: male STD/ddY mice; experiment: Increasing effect on spontaneous locomotor activity, intraperitoneal administration; format: in vivo; conditions: measured for 60 minutes, TRH taken as 1
# Method: as §3, §4, §5
# [7] = system: male STD/ddY mice; experiment: Antagonistic effect on pentobarbital anesthesia, intravenous administration; format: in vivo; conditions: intravenous administration 10 min after pentobarbital sodium 55 mg/kg i.p., TRH taken as 1
# Method: as §4
# Pentobarbital sodium was intraperitoneally administered to male STD/ddY mice at a dose of 55 mg/kg. Ten minutes after the administration of pentobarbital sodium, a test compound dissolved in a physiological saline solution was intravenously administered to the mice which had lost the righting reflex. The duration of anesthesia was measured as the time from the end of administration of the test compound until the righting reflex regained. A physiological saline solution was administered to the control group of mice instead of the test compound solution.
# [8] = system: male STD/ddY mice; experiment: Potentiating effect on action of Dopamine (L-Dopa in reserpinized mice); format: in vivo; conditions: intraperitoneal administration, reserpine 3 mg/kg s.c. and L-Dopa 200 mg/kg i.p., TRH taken as 1
# Method: as §4
# Reserpine was subcutaneously administered to male STD/ddY mice at a dose of 3 mg/kg, and about 16 to 20 hours later, L-Dopa was intraperitoneally administered to the mice at a dose of 200 mg/kg. Thirty minutes after administration of L-Dopa, a test compound dissolved in a physiological saline solution was administered intraperitoneally to the mice (when TRH was used as the test compound, it was administered 45 minutes after administration of L-Dopa). Spontaneous locomotor activity was measured by ANIMEX (i.e., an apparatus for mesuring spontaneous locomotor activity; manufactured by FERAD Co.) for 15 minutes starting from one hour after administration of L-Dopa. A physiological saline solution was administered to the control group of mice instead of the test compound solution.
# [9] = system: male JCL:SD rats; experiment: TSH-releasing activity (side effect), serum TSH by radioimmunoassay; format: in vivo; conditions: intravenous administration, serum TSH 15 min after, TRH taken as 1, parallel line assay method
# Method: A test compound dissolved in a 0.1% BSA (bovine serum albumin)-containing physiological saline solution was intravenously administered to male JCL:SD rats. Fifteen minutes after the administration, blood was taken from the abdominal aorta under anesthesia. Serum TSH levels were determined by the double-antibody radioimmunoassay method (Midgley et al., Endocrinology., 79, 10 (1966)). The BSA-containing physiological saline solution was administered to the control group of rats instead of the test compound solution.
# [10] = system: male STD/ddY mice; experiment: Acute toxicity (LD50), intravenous; format: in vivo; conditions: mortality 24 hours after administration
# Method: A test compound was intravenously administered to male STD/ddY mice and the acute toxicity (LD50) thereof was determined from mortality of mice 24 hours after administration of the test compound.
# [11] = system: male JCL:SD rats; conditions: TRH taken as 1; cited from earlier work
SMILES,Therapeutic activity by oral administration,LD50 (published data) [1],"Potency ratio to TRH tartrate, antagonistic effect on reserpine-induced hypothermia [2]","Minimum effective dose, increasing effect on spontaneous locomotor activity [3]","Minimum effective dose, antagonistic effect on pentobarbital anesthesia [4]","Potency ratio to TRH, antagonistic effect on reserpine-induced hypothermia [5]","Potency ratio to TRH, increasing effect on spontaneous locomotor activity [6]","Potency ratio to TRH, antagonistic effect on pentobarbital anesthesia [7]","Potency ratio to TRH, potentiating effect on action of Dopamine [8]","Potency ratio to TRH, TSH-releasing activity [9]",LD50 [10],"Potency ratio to TRH, TSH-releasing activity (published data) [11]"
"NC(=O)[C@@H]1CCCN1C(=O)[C@H](Cc1cnc[nH]1)NC(=O)[C@@H]1CCC(=O)N1 [TRH, L-pyroglutamyl-L-histidyl-L-prolinamide]",no substantial therapeutic effects,"1450 mg/kg, i.v.",–,–,–,–,–,–,–,–,–,–
"CN1C(=O)C[C@@H](C(=O)N[C@@H](Cc2c[nH]cn2)C(=O)N2CCC[C@H]2C(N)=O)NC1=O [The compound of the present invention, (1-methyl-L-4,5-dihydroorotyl)-L-histidyl-L-prolinamide]",excellent therapeutic activity even by oral administration,–,91.3,10 mg/kg,1 mg/kg,31.4,27.4,2.7,18.5,1/30,"1589 mg/kg, i.v.",–
NC(=O)[C@@H]1CCCN1C(=O)[C@H](Cc1cnc[nH]1)NC(=O)[C@@H]1CCC(=O)N1.O=C(O)C(O)C(O)C(=O)O [TRH tartrate],–,–,–,> 100 mg/kg,> 100 mg/kg,–,–,–,–,–,–,–
"NC(=O)[C@@H]1CCCN1C(=O)[C@H](Cc1c[nH]cn1)NC(=O)c1cc(=O)[nH]c(=O)[nH]1 [No. 2, Orotyl-L-histidyl-L-prolinamide]",–,"1200 mg/kg, i.v.",13.0,–,–,7.4,3.8,1.9,2.6,–,–,–
"NC(=O)[C@@H]1CCCN1C(=O)[C@H](Cc1c[nH]cn1)NC(=O)[C@@H]1CCC(=O)O1 [No. 1, (2,3,4,5-tetrahydro-2-oxo-L-5-furancarbonyl)-L-histidyl-L-prolinamide]",–,–,3.4,–,–,5.7,3.5,1.3,2.5,–,–,1/40
